Measurements taken from ChEMBL document CHEMBL1131525, “Synthesis and anti-inflammatory activity of chalcone derivatives” (Bioorg Med Chem Lett, 1998).

Columns and labels:
[1] = organism: Homo sapiens; assay: (§1) […] required for elastase release in stimulated human neutrophils; type: functional; design: concentration or dose not given beside the values
[2] = system: Mus musculus; assay: In vivo inhibition of compound required to inhibit PGE-2 levels in zymosan treated mouse air pouch at a dose of 100 nmol/pouch; type: functional
[3] = system: Mus musculus; assay: In vivo inhibition of compound required to inhibit TNF-alpha levels in zymosan treated mouse air pouch at a dose of 100 nmol/pouch; type: functional
[4] = organism: Homo sapiens; assay: (§2) Inhibitory concentration required for LTB4 synthesis in stimulated human neutrophils; type: functional
[5] = system: Mus musculus; assay: In vivo inhibition of compound required to inhibit LTB4 levels in zymosan treated mouse air pouch at a dose of 100 nmol/pouch; type: functional
[6] = system: Mus musculus; assay: In vivo inhibition of compound required for migration of neutrophils into the mouse pouch at the dose of 100 nmol/pouch; type: functional
[7] = molecular target: T1, Polyunsaturated fatty acid 5-lipoxygenase (Homo sapiens) (UniProt P09917); assay: (§3) Inhibitory concentration required against 5-lipoxygenase activity in cytosolic fractions of human neutrophils; conditions: concentration not given here
T1 sequence (whole entry): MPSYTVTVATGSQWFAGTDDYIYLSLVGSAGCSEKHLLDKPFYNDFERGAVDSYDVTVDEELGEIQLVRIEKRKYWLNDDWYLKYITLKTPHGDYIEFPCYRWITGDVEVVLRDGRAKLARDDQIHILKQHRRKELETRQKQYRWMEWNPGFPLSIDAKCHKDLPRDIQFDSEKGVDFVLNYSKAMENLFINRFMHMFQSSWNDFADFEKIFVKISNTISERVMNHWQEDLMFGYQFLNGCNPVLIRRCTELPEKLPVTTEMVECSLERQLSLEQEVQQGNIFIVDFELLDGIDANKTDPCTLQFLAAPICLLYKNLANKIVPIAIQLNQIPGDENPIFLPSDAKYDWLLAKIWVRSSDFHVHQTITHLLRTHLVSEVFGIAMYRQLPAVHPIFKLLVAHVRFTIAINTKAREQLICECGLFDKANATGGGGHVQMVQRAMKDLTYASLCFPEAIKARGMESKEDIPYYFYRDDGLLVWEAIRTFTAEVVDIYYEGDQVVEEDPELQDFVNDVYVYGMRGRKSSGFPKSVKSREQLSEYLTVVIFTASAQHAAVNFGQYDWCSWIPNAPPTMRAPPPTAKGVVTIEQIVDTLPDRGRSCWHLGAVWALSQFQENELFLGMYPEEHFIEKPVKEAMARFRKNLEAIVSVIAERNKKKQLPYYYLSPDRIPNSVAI

[8] = molecular target: T2, Prostaglandin G/H synthase 2 (Homo sapiens) (UniProt P35354); assay: Inhibition of COX-2 activity in intact human monocytes; type: cell-based; design: concentration or dose not given beside the values; conditions: concentration not given here
T2 sequence (whole entry): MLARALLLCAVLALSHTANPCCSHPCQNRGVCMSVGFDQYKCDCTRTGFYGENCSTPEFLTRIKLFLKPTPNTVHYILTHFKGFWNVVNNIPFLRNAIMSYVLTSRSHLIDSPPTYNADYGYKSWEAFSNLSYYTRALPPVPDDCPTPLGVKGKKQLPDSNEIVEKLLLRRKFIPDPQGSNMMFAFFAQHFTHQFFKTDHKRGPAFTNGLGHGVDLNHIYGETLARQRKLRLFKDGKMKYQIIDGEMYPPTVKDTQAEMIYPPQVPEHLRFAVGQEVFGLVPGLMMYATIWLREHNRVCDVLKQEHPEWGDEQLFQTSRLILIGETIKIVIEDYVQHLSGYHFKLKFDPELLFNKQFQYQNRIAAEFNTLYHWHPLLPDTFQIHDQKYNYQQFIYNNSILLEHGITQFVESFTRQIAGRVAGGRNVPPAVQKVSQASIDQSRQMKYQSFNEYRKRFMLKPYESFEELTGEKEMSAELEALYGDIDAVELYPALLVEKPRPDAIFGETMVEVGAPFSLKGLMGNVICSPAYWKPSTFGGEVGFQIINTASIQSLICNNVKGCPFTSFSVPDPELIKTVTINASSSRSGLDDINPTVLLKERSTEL

[9] = organism: Homo sapiens; assay: Inhibitory concentration required for scavenging of superoxide anion generated by stimulated human neutrophils; type: functional
[10] = Inhibitory concentration required for scavenging of superoxide anion generated by hypoxanthine / xanthine oxidase system; type: functional
[11] = organism: Homo sapiens; assay: as §1; type: functional
[12] = molecular target: T3, Polyunsaturated fatty acid 5-lipoxygenase (Homo sapiens, UniProt P09917); assay: as §3
T3 sequence (P09917 whole entry): T1 sequence (whole entry)

[13] = organism: Homo sapiens; assay: as §2; type: functional, organism-based
[14] = molecular target: T3, Polyunsaturated fatty acid 5-lipoxygenase; assay: Inhibitory concentration required against 5-lipoxygenase activity in intact cells of human neutrophils; type: cell-based

| inhibition [7] [%] | inhibition [8] [%] | IC50 [9] [µM] | IC50 [10] [µM] | IC50 [11] [µM] | IC50 [12] [µM] | IC50 [13] [µM] | IC50 [14] [µM] | SMILES | Inhibition [1] [%] | Inhibition [2] [%] | Inhibition [3] [%] | Inhibition [4] [%] | Inhibition [5] [%] | Inhibition [6] [%] |
| --- | --- | --- | --- | --- | --- | --- | --- | --- | --- | --- | --- | --- | --- | --- |
| 30.2 | 46.6 | – | – | – | – | – | – | O=C(/C=C/c1cc2ccccc2nc1Cl)c1cccnc1 | 0 | 69.5 | 12.1 | 26.4 | 30.7 | 53 |
| 27.6 | 41.8 | – | – | – | – | – | – | COc1ccc(C(=O)/C=C/c2cc3ccccc3nc2Cl)c(OC)c1 | 0 | 36.2 | 52.1 | 10.7 | 11.1 | 0 |
| 37.9 | 0 | 0.1 | 0.3 | – | – | – | – | COc1ccc(C(=O)/C=C/c2ccc(N(C)C)cc2)cc1OC | 0 | 75.8 | 64.2 | 0 | 41.1 | 20.6 |
| – | 0 | – | – | 8.4 | 3.5 | – | – | Cc1coc(C)c1C(=O)/C=C/c1cc2ccccc2nc1Cl | – | 56.8 | 34.4 | 53.5 | 19.5 | 47.1 |
| – | 36.3 | – | – | 3 | 3.9 | 6.2 | – | O=C(/C=C/c1cc2ccccc2nc1Cl)c1ccc(F)cc1 | – | 58.3 | 0 | – | 18.5 | 36.6 |
| 14.6 | 0 | – | – | – | – | – | – | COc1cc(/C=C/C(=O)c2cc(OC)c(OC)c(OC)c2)cc(OC)c1OC | 0 | 0 | 25.7 | 21.1 | 27.5 | 35 |
| 61 | 0 | – | – | – | – | 9.8 | – | COc1cc2cc(/C=C/C(=O)c3ccc(C)cc3)c(Cl)nc2cc1OC | 40.7 | 59.5 | 11.2 | – | 15.2 | 38.6 |
| – | 0 | – | – | 2.2 | 6.1 | 6.7 | – | COc1cccc(/C=C/C(=O)c2ccc(Br)cc2)c1OC | – | 62 | 44 | – | 40 | 35.7 |
| – | – | – | – | – | 0.09 | – | 0.06 | CCn1c(=O)ccc2cc(COc3cc(F)cc(C4(OC)CCOCC4)c3)ccc21 | – | – | – | – | – | – |
| – | 0 | – | – | 5.4 | 4.1 | 4.8 | – | O=C(/C=C/c1ccco1)c1ccc(Cl)c(Cl)c1 | – | 71 | 0 | – | 0 | 47.3 |
| 42.3 | 30 | – | – | – | – | – | – | COc1ccc(C(=O)/C=C/c2cc3ccccc3nc2Cl)cc1 | 0 | 23.2 | 0 | 30.2 | 20.9 | 20.4 |
| 21.7 | 0 | – | – | – | – | – | – | COc1ccc(C(=O)/C=C/c2ccc(C(F)(F)F)cc2)c(OC)c1 | 0 | 25.5 | 0 | 35.4 | 45.9 | 0 |
| 42 | 0 | – | – | – | – | – | – | COc1cc2cc(/C=C/C(=O)c3ccccc3)c(Cl)nc2cc1OC | 0 | 29.9 | 35.7 | 42.2 | 0 | 0 |
| 32.9 | 35.6 | – | – | – | – | – | – | O=C(/C=C/c1cc2ccccc2nc1Cl)c1ccc(C(F)(F)F)cc1 | 0 | 46.5 | 24.5 | 36.9 | 13 | 39.7 |
